Structures can show the parent of a compound that is named as a salt. A value given as a limit tells only on which side of the number the result lay.

In the first assay the target is ROCK2 (Homo sapiens, UniProt O75116). In words: ROCK2 kinase inhibition assay (LABCHIP 3000 Reader, FITC peptide substrate).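 Further: rho kinase reaction read by separating phosphorylated from unphosphorylated peptide on chip, with inhibition of kinase activity computed per concentration across a dose-response series.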
Sequence of ROCK2 (O75116 whole entry, species assumed): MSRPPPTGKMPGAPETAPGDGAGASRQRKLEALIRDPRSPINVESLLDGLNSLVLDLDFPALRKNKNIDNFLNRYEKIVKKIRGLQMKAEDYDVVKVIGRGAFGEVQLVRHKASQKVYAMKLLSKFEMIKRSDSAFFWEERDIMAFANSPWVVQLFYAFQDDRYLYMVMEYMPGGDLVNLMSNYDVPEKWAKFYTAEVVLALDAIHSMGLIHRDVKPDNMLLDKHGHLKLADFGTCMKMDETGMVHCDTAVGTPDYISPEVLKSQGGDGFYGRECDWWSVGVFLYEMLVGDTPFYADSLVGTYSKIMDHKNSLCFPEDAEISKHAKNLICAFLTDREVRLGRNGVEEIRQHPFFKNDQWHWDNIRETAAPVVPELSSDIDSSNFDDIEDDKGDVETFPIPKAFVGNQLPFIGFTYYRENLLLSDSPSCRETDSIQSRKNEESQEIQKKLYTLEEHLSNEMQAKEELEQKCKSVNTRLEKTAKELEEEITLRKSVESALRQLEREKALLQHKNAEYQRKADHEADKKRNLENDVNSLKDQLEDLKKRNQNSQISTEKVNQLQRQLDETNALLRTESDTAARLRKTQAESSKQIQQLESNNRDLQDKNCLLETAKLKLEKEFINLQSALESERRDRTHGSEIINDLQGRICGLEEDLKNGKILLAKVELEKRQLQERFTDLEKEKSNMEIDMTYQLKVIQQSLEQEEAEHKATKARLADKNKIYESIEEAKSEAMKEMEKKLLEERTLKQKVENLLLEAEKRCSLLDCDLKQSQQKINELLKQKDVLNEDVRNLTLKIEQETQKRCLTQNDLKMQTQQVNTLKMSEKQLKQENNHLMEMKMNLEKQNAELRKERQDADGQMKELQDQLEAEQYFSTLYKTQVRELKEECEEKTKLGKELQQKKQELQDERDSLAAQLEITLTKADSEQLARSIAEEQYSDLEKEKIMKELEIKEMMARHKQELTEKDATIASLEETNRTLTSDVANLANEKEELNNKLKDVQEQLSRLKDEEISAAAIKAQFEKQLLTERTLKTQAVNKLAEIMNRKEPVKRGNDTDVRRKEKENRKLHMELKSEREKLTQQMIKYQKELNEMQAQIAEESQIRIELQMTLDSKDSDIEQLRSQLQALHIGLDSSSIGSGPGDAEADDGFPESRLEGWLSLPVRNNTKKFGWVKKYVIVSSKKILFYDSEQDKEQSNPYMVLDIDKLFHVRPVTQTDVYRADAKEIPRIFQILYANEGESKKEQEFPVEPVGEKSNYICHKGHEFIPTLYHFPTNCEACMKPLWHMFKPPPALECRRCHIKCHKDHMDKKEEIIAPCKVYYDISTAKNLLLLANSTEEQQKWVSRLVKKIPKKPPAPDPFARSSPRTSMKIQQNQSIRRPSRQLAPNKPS
Details: not given
What is called IC50 is the concentration that gives 50% inhibition. In the case of `[H][C@]1(Oc2ncccc2C(N)=O)C[C@@]2(C[C@H](NC(=O)c3cc(OCCC(F)(F)F)cc(-c4cnn(C)c4)c3)C2)C1` (some centres unmarked) [Example 57], the IC50 was in the range of 50 to 250 nM.

`CC(C)(O)COc1ccc2c(C(=O)N[C@H]3CC4(C3)C[C@H](Oc3ccccc3C(N)=O)C4)cnn2c1CCC(F)(F)F` (stereo partly drawn) [Example 19, N-[(aR)-6-(2-carbamoylphenoxy)spiro[3.3]heptan-2-yl]-6-(2-hydroxy-2-methylpropoxy)-7-(3,3,3-trifluoropropyl)pyrazolo [1,5-a]pyridine-3-carboxamide] returned an IC50 below 5 nM.

`COc1cc(C(=O)NC2CC3(C2)CC(Oc2ccccc2C(N)=O)C3)ccc1-c1cn[nH]c1` (centres unmarked) [Example 5, N-(6-(2-carbamoylphenoxy)spiro[3.3]heptan-2-yl)-3-methoxy-4-(1H-pyrazol-4-yl)benzamide] returned an IC50 of 50 to 250 nM.

Turning to `CC(C)(O)COc1ccc2c(C(=O)NC3CC4(C3)CC(Oc3cc(-c5ccc(CN6CCOCC6)s5)ccc3C(N)=O)C4)cnn2c1` (centres unmarked) [Example 281, N-(6-(2-carbamoyl-5-(5-(morpholinomethyl)thiophen-2-yl)phenoxy)spiro[3.3]heptan-2-yl)-6-(2-hydroxy-2-methylpropoxy)pyrazolo[1,5-a]pyridine-3-carboxamide], the IC50 lay within 5 to 50 nM.

`COc1ccn2c(C(=O)N[C@H]3CC4(C3)C[C@H](Oc3ncccc3C(N)=O)C4)cnc2c1` (stereo partly drawn) [Example 348, N-((aR)-6-((3-carbamoylpyridin-2-yl)oxy)spiro[3.3]heptan-2-yl)-7-methoxyimidazo[1,2-a]pyridine-3-carboxamide] displayed a 50% inhibitory concentration (IC50) of 50 to 250 nM.

As for `[2H]C([2H])([2H])n1nc(C(=O)N[C@H]2CC3(C2)C[C@H](Oc2ncccc2C(N)=O)C3)c2ccc(F)cc21` (stereo partly drawn) [Example 174, 6-fluoro-1-(^2H3)methyl-N-[(aR)-6-[(3-carbamoylpyridin-2-yl)oxy]spiro[3.3]heptan-2-yl]-1H-indazole-3-carboxamide, trifluoroacetate], the IC50 lay in the range of 5 to 50 nM.

With `[H][C@]1(Oc2ncccc2C(N)=O)C[C@@]2(C[C@H](NC(=O)c3cnc4cc(N5CC(N)C5)ccn34)C2)C1` (stereo partly drawn) [Example 359, 7-(3-aminoazetidin-1-yl)-N-((aR)-6-((3-carbamoylpyridin-2-yl)oxy)spiro[3.3]heptan-2-yl)imidazo[1,2-a]pyridine-3-carboxamide], the IC50 fell in the range of 50 to 250 nM.

Consider `COc1ccc(-c2nc(C(=O)N[C@H]3CC4(C3)C[C@H](Oc3ncccc3C(N)=O)C4)cs2)cc1` (stereo partly drawn) [Example 136, N-((aR)-6-((3-carbamoylpyridin-2-yl)oxy)spiro[3.3]heptan-2-yl)-2-(4-methoxyphenyl) thiazole-4-carboxamide, trifluoroacetate], for which the IC50 is 250 to 2500 nM.

In the case of `CNC(=O)c1ccc(-c2ncc(C(=O)NC3CC4(C3)CC(Oc3ncccc3C(N)=O)C4)s2)cc1F` [Example 419, N-((aR)-6-((3-carbamoylpyridin-2-yl)oxy)spiro[3.3]heptan-2-yl)-2-(3-fluoro-4-(methylcarbamoyl)phenyl)thiazole-5-carboxamide, TFA], the IC50 lay in the range of 50 to 250 nM.

The compound `Cn1cc(-c2ccn3c(C(=O)N[C@H]4CC5(C4)C[C@H](Oc4ncccc4C(N)=O)C5)cnc3c2)cn1` (stereo partly drawn) [Example 337, N-((aR)-6-((3-carbamoylpyridin-2-yl)oxy)spiro[3.3]heptan-2-yl)-7-(1-methyl-1H-pyrazol-4-yl)imidazo[1,2-a]pyridine-3-carboxamide] registered an IC50 of 5 to 50 nM.

Turning to `CC(C)(O)COc1ccc2c(C(=O)NC3CC4(C3)CC(Oc3cc(-c5cccc(CCN)c5)ccc3C(N)=O)C4)cnn2c1` (centres unmarked) [Example 261, N-(6-((3′-(2-aminoethyl)-4-carbamoyl-[1,1′-biphenyl]-3-yl)oxy)spiro[3.3]heptan-2-yl)-6-(2-hydroxy-2-methylpropoxy)pyrazolo[1,5-a]pyridine-3-carboxamide], the IC50 is below 5 nM.

The compound `CNC(=O)c1cccc(-c2ccc(C(N)=O)c(OC3CC4(CC(NC(=O)c5cnn6cc(OCC(C)(C)O)ccc56)C4)C3)c2)c1` (centres unmarked) [Example 287, 3′-((6-(6-(2-hydroxy-2-methylpropoxy)pyrazolo[1,5-a]pyridine-3-carboxamido)spiro[3.3]heptan-2-yl)oxy)-N3-methyl-[1,1′-biphenyl]-3,4′-dicarboxamide] returned an IC50 of 5 to 50 nM.

With `NC(=O)c1cccnc1O[C@H]1CC2(C[C@H](NC(=O)c3cnn4c(C5CC5)c(OCC5CCCO5)ccc34)C2)C1` (stereo partly drawn) [Example 342, N-((aR)-6-((3-carbamoylpyridin-2-yl)oxy)spiro[3.3]heptan-2-yl)-7-cyclopropyl-6-((tetrahydrofuran-2-yl)methoxy)pyrazolo[1,5-a]pyridine-3-carboxamide], the IC50 is below 5 nM.

Turning to `CN1CCN(c2ccc3c(C(=O)N[C@H]4CC5(C4)C[C@H](Oc4ncccc4C(N)=O)C5)cnn3c2)CC1` (stereo partly drawn) [Example 319, N-((aR)-6-((3-carbamoylpyridin-2-yl)oxy)spiro[3.3]heptan-2-yl)-6-(4-methylpiperazin-1-yl)pyrazolo[1,5-a]pyridine-3-carboxamide], the IC50 lay within 5 to 50 nM.

For `NC(=O)c1cccnc1O[C@H]1CC2(C[C@H](NC(=O)c3nc(-c4ccccn4)cs3)C2)C1` (stereo partly drawn) [Example 145, N-((aR)-6-((3-carbamoylpyridin-2-yl)oxy)spiro[3.3]heptan-2-yl)-4-(pyridin-2-yl) thiazole-2-carboxamide, trifluoroacetate], the 50% inhibitory concentration (IC50) fell in the range of 250 to 2500 nM.

As for `[H][C@]1(Oc2ncccc2C(N)=O)C[C@@]2(C[C@H](NC(=O)c3nnn4cc(N5CCOCC5)ccc34)C2)C1` (stereo partly drawn) [Example 369, N-((aR)-6-((3-carbamoylpyridin-2-yl)oxy)spiro[3.3]heptan-2-yl)-6-morpholino-[1,2,3]triazolo[1,5-a]pyridine-3-carboxamide], the IC50 lay in the range of 250 to 2500 nM.

For the compound `NC(=O)c1cccnc1O[C@H]1CC2(C[C@H](NC(=O)c3ccccc3-c3nc4ccccc4[nH]3)C2)C1` (stereo partly drawn) [Example 140, 2-(((aR)-6-(2-(1H-benzo[d]imidazol-2-yl)benamido)spiro [3.3]heptan-2-yl)oxy) nicotinamide, trifluoroacetate], the IC50 is 250 to 2500 nM.

With `CC(C)(O)COc1ccc2c(C(=O)NC3CC4(C3)CC(Oc3cc(-c5cccc(COC(=O)NCCC(=O)O)c5)ccc3C(N)=O)C4)cnn2c1` (centres unmarked) [Example 249, 3-((((4′-carbamoyl-3′-((6-(6-(2-hydroxy-2-methylpropoxy)pyrazolo[1,5-a]pyridine-3-carboxamido)spiro[3.3]heptan-2-yl)oxy)-[1,1′-biphenyl]-3-yl)methoxy)carbonyl)amino)propanoic acid], the half-inhibitory concentration (IC50) is below 5 nM.

`CC(C)(O)COc1ccc2c(C(=O)NC3CC4(C3)CC(Oc3cc(-c5cccc(C#N)c5)ccc3C(N)=O)C4)cnn2c1` (centres unmarked) [Example 244, N-(6-((4-carbamoyl-3′-cyano-[1,1′-biphenyl]-3-yl)oxy)spiro[3.3]heptan-2-yl)-6-(2-hydroxy-2-methylpropoxy)pyrazolo[1,5-a]pyridine-3-carboxamide] returned an IC50 below 5 nM.

On to `N#Cc1cc(C(=O)N[C@H]2CC3(C2)C[C@H](Oc2ncccc2C(N)=O)C3)cc(-c2c[nH]nc2C(F)(F)F)c1` (stereo partly drawn) [Example 193, 2-(((aR)-6-(3-cyano-5-(3-(trifluoromethyl)-1H-pyrazol-4-yl)benzamido)spiro[3.3]heptan-2-yl)oxy)nicotinamide, trifluoroacetate], for which the IC50 fell in the range of 5 to 50 nM.

On to `Cn1nc(C(=O)NC2CC3(C2)CC(Oc2ccccc2C(N)=O)C3)c2ccccc21` (centres unmarked) [Example 2, N-(6-(2-carbamoylphenoxy)spiro[3.3]heptan-2-yl)-1-methyl-1H-indazole-3-carboxamide], for which the IC50 fell in the range of 50 to 250 nM.

As to `Cc1cc(C(=O)N[C@H]2CC3(C2)C[C@H](Oc2ncccc2C(N)=O)C3)n(C)n1` (stereo partly drawn) [Example 83, 2-((aR)-6-(1,3-dimethyl-1H-pyrazole-5-carboxamido)spiro[3.3]heptan-2-yl)oxy)nicotinamide, trifluoroacetate], the IC50 is 250 to 2500 nM.

Compound `Cn1cccc(-c2cc(C#N)cc(C(=O)N[C@H]3CC4(C3)C[C@H](Oc3ncccc3C(N)=O)C4)c2)c1=O` (stereo partly drawn) [Example 194, 2-(((aR)-6-(3-cyano-5-(1-methyl-2-oxo-1,2-dihydropyridin-3-yl)benzamido)spiro[3.3]heptan-2-yl)oxy)nicotinamide, trifluoroacetate] displayed an IC50 of 5 to 50 nM.

As to `NC(=O)c1cccnc1O[C@H]1CC2(C[C@H](NC(=O)c3cnn4ccccc34)C2)C1` (stereo partly drawn) [Example 311, N-((aR)-6-((3-carbamoylpyridin-2-yl)oxy)spiro[3.3]heptan-2-yl)pyrazolo[1,5-a]pyridine-3-carboxamide], the IC50 was 50 to 250 nM.

`[H][C@]1(Oc2ncccc2C(N)=O)C[C@@]2(C[C@H](NC(=O)c3cn4nc(OCC(F)(F)F)ccc4n3)C2)C1` (stereo partly drawn) [Example 61, N-((aR)-6-((3-carbamoylpyridin-2-yl)oxy)spiro[3.3]heptan-2-yl)-6-(2,2,2-trifluoroethoxy)imidazo[1,2-b]pyridazine-2-carboxamide]: the IC50 fell in the range of 50 to 250 nM.

Still in this assay, the particulars now being: read-out: ROCK2 Activity (ROCK2 IC50); 5 μM ATP, 1.5 μM peptide substrate, pH 7.5.
Turning to `CC(C)(O)Cn1nc(C(=O)NC2CC3(C2)CC(Oc2ncccc2C(N)=O)C3)c2ccc(F)cc21` [Example 97, N-((aR)-6-((3-carbamoylpyridin-2-yl)oxy)spiro[3.3]heptan-2-yl)-6-fluoro-1-(2-hydroxy-2-methylpropyl)-1H-indazole-3-carboxamide, trifluoroacetate], the IC50 lay in the range of 5 to 50 nM.

For “N-((aR)- 6-((3- carbamoylpyridin- 2- yl)oxy)spiro[3.3] heptan-2-yl)- 2-(3,3-difluoroazetidin- 1-yl)- 4-methylthiazole- 5- carboxamide, trifluoroacetate [Example 90]”, the IC50 is 50 to 250 nM.

As to “2-(((aR)-6-(3-(2- methylthiazol-4- yl)benzamido)spiro [3.3]heptan-2- yl)oxy)nicotinamide, trifluoroacetate [Example 133]”, the IC50 fell in the range of 5 to 50 nM.

For the compound `NC(=O)c1cccnc1OC1CC2(CC(NC(=O)c3nc(C(F)F)n4cc(N5CCOC(CCO)C5)ccc34)C2)C1` [Example 451, N-((aR)-6-((3-carbamoylpyridin-2-yl)oxy)spiro[3.3]heptan-2-yl)-3-(difluoromethyl)-6-(2-(2-hydroxyethyl)morpholino)imidazo[1,5-a]pyridine-1-carboxamide], the half-maximal inhibitory concentration (IC50) was 5 to 50 nM.
